Tests used:
B. subtilis 168 [1] = experiment: fitness (endpoint OD595 vs no drug) (fraction); higher = more growth
Outline: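 Plates with 384 wells were inoculated at OD595 0.01 using 30 µl of TSB, LB Lennox or CY, or 55 µl for S. pneumoniae. Incubation was at 37 °C, with OD595 measured every 30 min for 14 h. Fitness is the stationary-phase transition optical density over the robust mean of no-drug control wells, after first-reading background subtraction; it is capped at 1.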

S. aureus DSM 20231 = experiment: Bliss interaction score (quartile over a dose matrix) (fitness difference); higher = more antagonism (negative = synergy)
Outline: (§1)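 Fitness was OD595 at entry into stationary phase divided by the plate's robust no-drug mean and capped at 1; single-drug fitness was inferred from combination data. The Bliss score is observed minus expected (product) fitness, summarised by quartiles over technical, biological and donor/recipient replicates.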

S. aureus Newman = experiment: as above
Outline: as §1

S. pneumoniae D39V = experiment: as above
Outline: as §1

B. subtilis 168 [2] = experiment: as above
Outline: as §1
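For Bliss interaction score (quartile over a dose matrix) in this document: first quartile when negative (synergy) and third quartile when positive (antagonism).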

CO[C@@H]1[C@@H](OC(N)=O)[C@@H](O)[C@H](Oc2ccc3c(O)c(NC(=O)c4ccc(O)c(CC=C(C)C)c4)c(=O)oc3c2C)OC1(C)C [Novobiocin] + COc1cc(Cc2cnc(N)nc2N)cc(OC)c1OC [Trimethoprim]
fitness, B. subtilis 168 [1]
Settings	first compound 0.0125 µg/mL	first compound 0.025 µg/mL	first compound 0.05 µg/mL	first compound 0.1 µg/mL	first compound 0.2 µg/mL
partner 0.25 µg/mL	–	–	–	–	0.754
partner 0.5 µg/mL	0.566	0.525	0.502	0.492	0.554

B. subtilis 168 [1], one replicate
Settings	fitness
first compound 0.0125 µg/mL, partner 1 µg/mL	0.471
first compound 0.0125 µg/mL, partner 2 µg/mL	0.386
first compound 0.025 µg/mL, partner 1 µg/mL	0.451
first compound 0.025 µg/mL, partner 2 µg/mL	0.386
first compound 0.05 µg/mL, partner 0.1 µg/mL	0.947
first compound 0.05 µg/mL, partner 0.125 µg/mL	0.759
first compound 0.05 µg/mL, partner 0.2 µg/mL	0.794
first compound 0.05 µg/mL, partner 0.4 µg/mL	0.546
first compound 0.05 µg/mL, partner 1 µg/mL	0.521
first compound 0.05 µg/mL, partner 2 µg/mL	0.354
first compound 0.1 µg/mL, partner 0.1 µg/mL	≥ 1
first compound 0.1 µg/mL, partner 0.125 µg/mL	0.77
first compound 0.1 µg/mL, partner 0.2 µg/mL	0.797
first compound 0.1 µg/mL, partner 0.4 µg/mL	0.52
first compound 0.125 µg/mL, partner 0.125 µg/mL	0.835
first compound 0.125 µg/mL, partner 0.25 µg/mL	0.56
first compound 0.125 µg/mL, partner 0.5 µg/mL	0.479
first compound 0.2 µg/mL, partner 0.1 µg/mL	0.978
first compound 0.2 µg/mL, partner 0.125 µg/mL	0.757
first compound 0.2 µg/mL, partner 0.2 µg/mL	0.826
first compound 0.2 µg/mL, partner 0.4 µg/mL	0.474
first compound 0.25 µg/mL, partner 0.125 µg/mL	0.565
first compound 0.25 µg/mL, partner 0.25 µg/mL	0.459
first compound 0.25 µg/mL, partner 0.5 µg/mL	0.45
first compound 0.5 µg/mL, partner 0.125 µg/mL	0.424
first compound 0.5 µg/mL, partner 0.25 µg/mL	0.376
first compound 0.5 µg/mL, partner 0.5 µg/mL	0.406

Settings	Bliss interaction score
B. subtilis 168 [2]	0.136
S. aureus DSM 20231	0.134
S. aureus Newman	0.0627
S. pneumoniae D39V	0.0635

CO[C@@H]1[C@@H](OC(N)=O)[C@@H](O)[C@H](Oc2ccc3c(O)c(NC(=O)c4ccc(O)c(CC=C(C)C)c4)c(=O)oc3c2C)OC1(C)C [Novobiocin] + C[n+]1ccc(-c2cc[n+](C)cc2)cc1 [Paraquat]
fitness, B. subtilis 168 [1]
Settings	first compound 0.0125 µg/mL	first compound 0.025 µg/mL	first compound 0.05 µg/mL
partner 1.25 µg/mL	0.937	0.942	0.976
partner 2.5 µg/mL	0.939	0.956	0.999
partner 5 µg/mL	0.855	0.832	0.912

fitness, B. subtilis 168 [1], one replicate
Settings	first compound 0.125 µg/mL	first compound 0.25 µg/mL	first compound 0.5 µg/mL
partner 1.25 µg/mL	0.908	≥ 1	0.664
partner 2.5 µg/mL	0.951	0.878	0.517
partner 5 µg/mL	0.836	0.819	0.452

Settings	Bliss interaction score
B. subtilis 168 [2]	0.0704
S. aureus DSM 20231	0.0456
S. aureus Newman	0.0868
S. pneumoniae D39V	0.0614

CC[C@H](C)[C@H](N)C1=N[C@H](C(=O)N[C@@H](CC(C)C)C(=O)N[C@H](CCC(=O)O)C(=O)N[C@H](C(=O)N[C@H]2CCCCNC(=O)[C@H](CC(N)=O)NC(=O)[C@@H](CC(=O)O)NC(=O)[C@H](Cc3cnc[nH]3)NC(=O)[C@@H](Cc3ccccc3)NC(=O)[C@H]([C@@H](C)CC)NC(=O)[C@@H](CCCN)NC2=O)[C@@H](C)CC)CS1 [Bacitracin] + CO[C@@H]1[C@@H](OC(N)=O)[C@@H](O)[C@H](Oc2ccc3c(O)c(NC(=O)c4ccc(O)c(CC=C(C)C)c4)c(=O)oc3c2C)OC1(C)C [Novobiocin]
fitness, B. subtilis 168 [1], main component drawn
Settings	first compound 37.5 µg/mL	first compound 75 µg/mL	first compound 150 µg/mL
partner 0.0125 µg/mL	≥ 1	0.97	0.946
partner 0.025 µg/mL	0.988	≥ 1	0.941
partner 0.05 µg/mL	≥ 1	0.964	0.935

fitness, B. subtilis 168 [1], one replicate, main component drawn
Settings	partner 0.1 µg/mL	partner 0.125 µg/mL	partner 0.2 µg/mL	partner 0.25 µg/mL	partner 0.5 µg/mL
first compound 37.5 µg/mL	0.817	0.917	0.861	0.894	0.431
first compound 75 µg/mL	0.763	0.959	0.804	0.922	0.293
first compound 150 µg/mL	0.534	0.861	0.63	0.559	0.164

main component drawn
Settings	Bliss interaction score
B. subtilis 168 [2]	0.126
S. aureus DSM 20231	-0.0399
S. aureus Newman	-0.0809
S. pneumoniae D39V	0.0678

CN[C@@H]1[C@H](O[C@H]2[C@H](O[C@H]3[C@H](O)[C@@H](O)[C@H](N=C(N)N)[C@@H](O)[C@@H]3N=C(N)N)O[C@@H](C)[C@]2(O)C=O)O[C@@H](CO)[C@H](O)[C@H]1O [Streptomycin] + COc1cc(Cc2cnc(N)nc2N)cc(OC)c1OC [Trimethoprim]
fitness, B. subtilis 168 [1], one replicate
Settings	partner 0.1 µg/mL	partner 0.125 µg/mL	partner 0.2 µg/mL	partner 0.4 µg/mL
first compound 2 µg/mL	0.713	0.605	0.493	0.253
first compound 4 µg/mL	0.0534	0.0554	0.0535	0.0313
first compound 8 µg/mL	0.0279	0.0253	0.0392	0.025

fitness, B. subtilis 168 [1]
Settings	partner 0.25 µg/mL	partner 0.5 µg/mL	partner 1 µg/mL	partner 2 µg/mL
first compound 2 µg/mL	0.416	0.103	0.0483	0.0464
first compound 4 µg/mL	0.0303	0.0474	0.0558	0.0621
first compound 8 µg/mL	0.0127	0.0322	0.0309	0.0326

Settings	Bliss interaction score
B. subtilis 168 [2]	-0.252
S. aureus DSM 20231	-0.0639
S. aureus Newman	0.0902
S. pneumoniae D39V	-0.175

CO[C@@H]1[C@@H](OC(N)=O)[C@@H](O)[C@H](Oc2ccc3c(O)c(NC(=O)c4ccc(O)c(CC=C(C)C)c4)c(=O)oc3c2C)OC1(C)C [Novobiocin] + Cc1onc(-c2ccccc2)c1C(=O)N[C@@H]1C(=O)N2[C@@H]1SC(C)(C)[C@@H]2C(=O)O [Oxacillin]
fitness, B. subtilis 168 [1]
Settings	first compound 0.0125 µg/mL	first compound 0.025 µg/mL	first compound 0.05 µg/mL
partner 0.002 µg/mL	0.988	0.974	≥ 1
partner 0.004 µg/mL	0.949	0.926	≥ 1
partner 0.008 µg/mL	0.946	0.895	≥ 1

fitness, B. subtilis 168 [1], one replicate
Settings	first compound 0.05 µg/mL	first compound 0.1 µg/mL	first compound 0.125 µg/mL	first compound 0.2 µg/mL	first compound 0.25 µg/mL	first compound 0.5 µg/mL
partner 0.0078 µg/mL	–	–	0.997	–	0.968	0.547
partner 0.0155 µg/mL	–	–	0.952	–	0.948	0.498
partner 0.031 µg/mL	–	–	0.848	–	0.798	0.289
partner 0.075 µg/mL	0.673	0.672	–	0.734	–	–
partner 0.15 µg/mL	0.0266	0.0276	–	0.0165	–	–
partner 0.3 µg/mL	0.0465	0.036	–	0.0154	–	–

Settings	Bliss interaction score
B. subtilis 168 [2]	0.0603
S. aureus DSM 20231	0.0609
S. aureus Newman	-0.0672
S. pneumoniae D39V	-0.0758

CN[C@H](CC(C)C)C(=O)N[C@H]1C(=O)N[C@@H](CC(N)=O)C(=O)N[C@H]2C(=O)N[C@H]3C(=O)N[C@H](C(=O)N[C@H](C(=O)O)c4cc(O)cc(O)c4-c4cc3ccc4O)[C@H](O[C@H]3C[C@](C)(N)[C@@H](O)[C@H](C)O3)c3ccc(c(Cl)c3)Oc3cc2cc(c3O[C@@H]2O[C@H](CO)[C@@H](O)[C@H](O)[C@H]2O[C@H]2C[C@](C)(NCc3ccc(-c4ccc(Cl)cc4)cc3)[C@@H](O)[C@H](C)O2)Oc2ccc(cc2Cl)[C@H]1O [Oritavancin] + CC1(C)S[C@@H]2[C@H](NC(=O)Cc3ccccc3)C(=O)N2[C@H]1C(=O)O [PenicillinG]
Settings	Bliss interaction score
B. subtilis 168 [2]	0.0358
S. aureus DSM 20231	0.0356
S. aureus Newman	-0.066
S. pneumoniae D39V	0.0412

CN[C@H](CC(C)C)C(=O)N[C@H]1C(=O)N[C@@H](CC(N)=O)C(=O)N[C@H]2C(=O)N[C@H]3C(=O)N[C@H](C(=O)N[C@H](C(=O)O)c4cc(O)cc(O)c4-c4cc3ccc4O)[C@H](O[C@H]3C[C@](C)(N)[C@@H](O)[C@H](C)O3)c3ccc(c(Cl)c3)Oc3cc2cc(c3O[C@@H]2O[C@H](CO)[C@@H](O)[C@H](O)[C@H]2O[C@H]2C[C@](C)(NCc3ccc(-c4ccc(Cl)cc4)cc3)[C@@H](O)[C@H](C)O2)Oc2ccc(cc2Cl)[C@H]1O [Oritavancin] + CN[C@@H]1[C@H](O[C@H]2[C@H](O[C@H]3[C@H](O)[C@@H](O)[C@H](N=C(N)N)[C@@H](O)[C@@H]3N=C(N)N)O[C@@H](C)[C@]2(O)C=O)O[C@@H](CO)[C@H](O)[C@H]1O [Streptomycin]
Settings	Bliss interaction score
B. subtilis 168 [2]	-0.0219
S. aureus DSM 20231	-0.111
S. aureus Newman	-0.138
S. pneumoniae D39V	0.0462

CC(=O)NC[C@H]1CN(c2ccc(N3CCOCC3)c(F)c2)C(=O)O1 [Linezolid] + CC1(C)S[C@@H]2[C@H](NC(=O)Cc3ccccc3)C(=O)N2[C@H]1C(=O)O [PenicillinG]
Settings	Bliss interaction score
B. subtilis 168 [2]	-0.0653
S. aureus DSM 20231	0.0632
S. aureus Newman	-0.0481
S. pneumoniae D39V	0.0505

CN[C@H](CC(C)C)C(=O)N[C@H]1C(=O)N[C@@H](CC(N)=O)C(=O)N[C@H]2C(=O)N[C@H]3C(=O)N[C@H](C(=O)N[C@H](C(=O)O)c4cc(O)cc(O)c4-c4cc3ccc4O)[C@H](O[C@H]3C[C@](C)(N)[C@@H](O)[C@H](C)O3)c3ccc(c(Cl)c3)Oc3cc2cc(c3O[C@@H]2O[C@H](CO)[C@@H](O)[C@H](O)[C@H]2O[C@H]2C[C@](C)(NCc3ccc(-c4ccc(Cl)cc4)cc3)[C@@H](O)[C@H](C)O2)Oc2ccc(cc2Cl)[C@H]1O [Oritavancin] + COc1ccc(C[C@H](N)C(=O)N[C@H]2[C@@H](O)[C@H](n3cnc4c(N(C)C)ncnc43)O[C@@H]2CO)cc1 [Puromycin]
Settings	Bliss interaction score
B. subtilis 168 [2]	0.0232
S. aureus DSM 20231	-0.0699
S. aureus Newman	-0.0754
S. pneumoniae D39V	0.0762

CO[C@@]12[C@H](COC(N)=O)C3=C(C(=O)C(C)=C(N)C3=O)N1C[C@@H]1N[C@@H]12 [MitomycinC] + Cn1nnc(-c2ccc(-c3ccc(N4C[C@H](CO)OC4=O)cc3F)cn2)n1 [Tedizolid]
Settings	Bliss interaction score
B. subtilis 168 [2]	0.0705
S. aureus DSM 20231	-0.0817
S. aureus Newman	-0.0886
S. pneumoniae D39V	-0.124

CC[C@H]1OC(=O)[C@H](C)[C@@H](O[C@H]2C[C@@](C)(OC)[C@@H](O)[C@H](C)O2)[C@H](C)[C@@H](O[C@@H]2O[C@H](C)C[C@H](N(C)C)[C@H]2O)[C@](C)(O)C[C@@H](C)C(=O)[C@H](C)[C@@H](O)[C@]1(C)O [Erythromycin] + Oc1cc(Cl)ccc1Oc1ccc(Cl)cc1Cl [Triclosan]
Settings	Bliss interaction score
B. subtilis 168 [2]	-0.0438
S. aureus DSM 20231	-0.0265
S. aureus Newman	0.0312
S. pneumoniae D39V	-0.0874

From the supplement of paper PMC10627819
